The subject of series [1] is SKRC-52 renal cell carcinoma. The following applies: for anti-cancer activity compared to vehicle: 250 nmol/Kg IV per administration, n=4 per group, p<0.0001 for compounds 2 and 4; for tumor growth retardation compared with the other SMDCs: compound 2 vs compound 4.
Protocol: SKRC-52 cells were grown to 80% confluence and detached with Trypsin-EDTA 0.05% (Life Technologies). Cells were washed with Hank's Balanced Salt Solution (HBSS, pH 7.4) once, counted and re-suspended in HBSS to a final concentration of 5×10^7 cells/ml. Aliquots of 5×10^6 cells (100 μl of a suspension) were injected subcutaneously in the right flank of female athymic BALB/c nu/nu mice (6-8 weeks of age, Janvier).
Series [2] is described as follows: in vivo. The following applies: nude, mouse.
Series [3] deals with SKRC-52 renal cell carcinoma. Nature of the series: Tumor therapy in SKRC-52 xenografts: compound 2 with L19-IL2. Format: in vivo, BALB/c nu/nu mice. The following applies: day 17 after tumor implantation; compound 2 250 nmol/kg IV, L19-IL2 2.5 mg/Kg IV, single or combined. An excerpt: Animals were sacrificed when the termination criteria were reached.
Series [4] can be described thus: in vivo. Also on record: species or system BALB/c nu/nu mice. The following applies: female, BALB/c nu/nu, mouse, iv, 30 nmol/kg, total radioactivity. As for the experimental part: (§1) Radiolabeling procedures with technetium-99m were performed following described procedures (Krall N, Pretto F, Mattarella M, Muller C, Neri D. A technetium 99m-labeled ligand of carbonic anhydrase IX selectively targets renal cell carcinoma in vivo. J Nucl Med 2016; and Cazzamalli S, Dal Corso A, Neri D. Acetazolamide serves as selective delivery vehicle for dipeptide-linked drugs to renal cell carcinoma. Mol Cancer Ther 2016). Briefly, compounds 8, 9 and 10 (60 nmol) in TBS pH 7.4 (50 μl) were separately mixed with SnCl2 (Sigma Aldrich, 200 μg) and sodium glucoheptonate (TCI, 20 mg) in H2O (150 μl). Tris-buffered saline at pH 7.4 (600 μl) was added and the resulting solution degassed for 5 min by bubbling with nitrogen gas. The eluate from a ^99mTc-generator (200 μl, ca. 200 MBq, Mallinckrodt) was added and the reaction mixture heated to 90° C. for 20 min After cooling to room temperature, analytic aliquots were analyzed by RP-HPLC (XTerra C18, 5% MeCN in 0.1% aq. TFA to 80% over 20 min on a Merck-Hitachi D-7000 HPLC system equipped with a Raytest Gabi Star radiodetector) to determine radiolabelling yields. ^99mTc incorporations >95% were routinely achieved.
(§2) Mice were randomized (n=3 per group) and injected intravenously with radiolabelled preparations of compounds 8, 9 or 10 (1-3 MBq, 30 nmol/Kg). Mice were sacrificed 6 hours after the injection by CO2 asphyxiation and organs extracted, weighted and radioactivity measured with a Packard Cobra γ-counter. Values are expressed as % ID/g ±SD (FIG. 10B).

In the next series the test system is SKRC-52 xenografts. Nature of the series: in vivo. The arrangement: species or system BALB/c nu/nu mice. The following applies: mouse, iv. The protocol: as §1, §2
For the next series, the system named is renal cell carcinoma. The following applies: 18 patients with renal cell carcinoma; cited from earlier work.
The test system of series [5] is SKRC-52 renal cell carcinoma. Nature of the series: Tumor rechallenge of cured mice with SKRC-52, then treatment of regrowing tumors. The following applies: L19-IL2 2.5 mg/Kg alone; 3 mice. The class given is in vivo, BALB/c nu/nu mice. The protocol:
To determine whether the CAIX ligand armed with MMAE (compound 2, see example 1) in combination with L19-IL2 caused acquired protective immunity against the tumor, mice that were cured in the therapy experiment of Example 2 were injected with 5×10^6 cells (100 μl of a suspension) SKRC-52 cells/mouse 20 days after the treatment ended. […] Mice were rearranged in two groups and treated with either the compound 2 alone (250 nmol/Kg; 2 mice), or L19-IL2 (2.5 mg/Kg; 3 mice) alone (see the schedule in FIGS. 4A and 4B).

Where two headings read alike, the source gives them in different places.

Take `CC[C@H](C)[C@@H]([C@@H](CC(=O)N1CCC[C@H]1[C@H](OC)[C@@H](C)C(=O)N[C@H](C)[C@@H](O)c1ccccc1)OC)N(C)C(=O)[C@@H](NC(=O)[C@H](C(C)C)N(C)C(=O)OCc1ccc(NC(=O)[C@H](CCCNC(N)=O)NC(=O)[C@@H](NC(=O)CCCCCN2C(=O)CC(SC[C@H](NC(=O)[C@H](CC(=O)O)NC(=O)[C@H](CCCNC(=N)N)NC(=O)[C@H](CC(=O)O)NC(=O)[C@H](CCCCn3cc(CCCC(=O)Nc4nnc(S(N)(=O)=O)s4)nn3)NC(=O)C[C@H](NC(=O)C[C@H](NC(=O)CCC(C)(c3ccc(O)cc3)c3ccc(O)cc3)C(=O)O)C(=O)O)C(=O)O)C2=O)C(C)C)cc1)C(C)C` (stereo partly shown) [compound 2, AAZ*-ValCit-MMAE]: in series [1] (250 nmol/Kg IV), the durable complete response result was “no mice had a durable complete response”; the “tolerability (body weight changes, FIG. 9B)” value is listed as “very well tolerated”; the “tumor growth retardation compared with the other SMDCs” value is given as “most potent tumor growth retardation effect”. The “anti-cancer activity compared to vehicle” value in series [1] was “potent anti-cancer activity”. Further, the “tumor growth retardation compared with the other SMDCs” value in series [1] (250 nmol/Kg IV, listed as SMDC 2) was “superior antitumor activity”. In series [1] (50-fold dose of AAZ* ligand (1.25 μmol/Kg) directly followed by compound 2 250 nmol/Kg), the “therapeutic efficacy after presaturation with excess of free AAZ* (compound 7)” value is recorded as “reduced significantly”. In “in vivo [2]”, the MTD was 0.25 µmol/kg. Besides, in series [3], the “antitumor activity (FIG. 3)” value is on record as “Potent antitumor activity”.
With `CC[C@H](C)[C@@H]([C@@H](CC(=O)N1CCC[C@H]1[C@H](OC)[C@@H](C)C(=O)N[C@H](C)[C@@H](O)c1ccccc1)OC)N(C)C(=O)[C@@H](NC(=O)[C@H](C(C)C)N(C)C(=O)OCc1ccc(NC(=O)[C@H](CCCNC(N)=O)NC(=O)[C@@H](NC(=O)CCCCCN2C(=O)CC(SC[C@H](NC(=O)[C@H](CC(=O)O)NC(=O)[C@H](CCCNC(=N)N)NC(=O)[C@H](CC(=O)O)NC(=O)CCCCn3cc(CCCC(=O)Nc4nnc(S(N)(=O)=O)s4)nn3)C(=O)O)C2=O)C(C)C)cc1)C(C)C` (stereo partly shown) [compound 4, AAZ-ValCit-MMAE, reference compound], the “anti-cancer activity compared to vehicle” value in series [1] is recorded as “potent anti-cancer activity”.
Still for that read-out and setting: the entry for `CC[C@H](C)[C@@H]([C@@H](CC(=O)N1CCC[C@H]1[C@H](OC)[C@@H](C)C(=O)N[C@H](C)[C@@H](O)c1ccccc1)OC)N(C)C(=O)[C@@H](NC(=O)[C@H](C(C)C)N(C)C(=O)OCc1ccc(NC(=O)[C@H](CCCNC(N)=O)NC(=O)[C@@H](NC(=O)CCCCCN2C(=O)CC(SC[C@H](NC(=O)[C@H](CC(=O)O)NC(=O)[C@H](CCCNC(=N)N)NC(=O)[C@H](CC(=O)O)NC(=O)[C@H](CCCCn3cc(CCCC(N)=O)nn3)NC(=O)C[C@H](NC(=O)C[C@H](NC(=O)CCC(C)(c3ccc(O)cc3)c3ccc(O)cc3)C(=O)O)C(=O)O)C(=O)O)C2=O)C(C)C)cc1)C(C)C` (stereo partly shown) [compound 6, NH2^+-ValCit-MMAE] is “did not display a difference from the vehicle-treated group”.
Turning to `CC(CCC(=O)N[C@@H](CC(=O)N[C@@H](CC(=O)N[C@@H](CCCCn1cc(CCCC(=O)Nc2nnc(S(N)(=O)=O)s2)nn1)C(=O)NCCCC[C@H](N)C(=O)N[C@@H](CC(=O)O)C(=O)N[C@@H](CS)C(=O)O)C(=O)O)C(=O)O)(c1ccc(O)cc1)c1ccc(O)cc1` [compound 8, AAZ*-^99mTc Chelator, metal not drawn], the tissue uptake at 6 h in “in vivo [4]” worked out at 40 %ID/g. Further, the “tumor to blood ratio” value with SKRC-52 xenografts is 80:1.
Turning to `N[C@@H](CCCCNC(=O)[C@H](CC(=O)O)NC(=O)CCCCn1cc(CCCC(=O)Nc2nnc(S(N)(=O)=O)s2)nn1)C(=O)N[C@@H](CC(=O)O)C(=O)N[C@@H](CS)C(=O)O` [compound 9, AAZ-^99mTc Chelator, metal not drawn, reference compound], the tissue uptake at 6 h in the series “in vivo [4]” turned out to be 18 %ID/g.
For the molecule “L19-IL2: immunocytokine in which the anti-EDB antibody L19 (scFv) is conjugated to IL-2, SEQ ID NO: 22”, the “antitumor activity (FIG. 3)” value in series [3] is listed as “Potent antitumor activity”. Moreover, in the series with renal cell carcinoma, the objective responses entry is “no objective responses”. In addition, the “second complete tumor regression of regrowing tumors” value in series [5] is “second complete tumor regression for all 3 animals”.

For orientation: tissue uptake means the share of the injected amount in each gram of the tissue.

The record behind these values is patent US20190375837A1, “IMMUNOCYTOKINE COMBINATION THERAPY” (priority 2017, published 2019).
